Test results published in patent US9637472B2, “Substituted 6,5-fused bicyclic heteroaryl compounds” (Epizyme, Inc., priority 2011, dated 2017).

Molecular target: EZH2 (Homo sapiens (Human), UniProt Q15910)
Assay: PRC2 enzyme assay on peptide substrates
Assay type: biochemical
Conditions: PRC2 enzyme assays on peptide substrates; 4 nM enzyme, 30 min preincubation at 25° C.; read-out: EZH2 IC50
Text: General Materials. S-adenosylmethionine (SAM), S-adenosylhomocyteine (SAH), bicine, KCl, Tween20, dimethylsulfoxide (DMSO) and bovine skin gelatin (BSG) were purchased from Sigma-Aldrich at the highest level of purity possible. Dithiothreitol (DTT) was purchased from EMD. ^3H-SAM was purchased from American Radiolabeled Chemicals with a specific activity of 80 Ci/mmol. 384-well streptavidin Flashplates were purchased from PerkinElmer.
Substrates. […] The sequences are listed below.
Recombinant PRC2 Enzymes. Human PRC2 enzymes were purified as 4-component enzyme complexes co-expressed in Spodoptera frugiperda (sf9) cells using a baculovirus expression system. The subunits expressed were wild-type EZH2 (NM_004456) or EZH2 Y641F, N, H, S or C mutants generated from the wild-type EZH2 construct, EED (NM_003797), Suz12 (NM_015355) and RbAp48 (NM_005610). The EED subunit contained an N-terminal FLAG tag that was used to purify the entire 4-component complex from sf9 cell lysates.
General Procedure for PRC2 Enzyme Assays on Peptide Substrates. The assays were all performed in a buffer consisting of 20 mM bicine (pH=7.6), 0.5 mM DTT, 0.005% BSG and 0.002% Tween20, prepared on the day of use. […] DMSO (1 μL) was added to columns 11, 12, 23, 24, rows A-H for the maximum signal control, and SAH, a known product and inhibitor of PRC2 (1 μL) was added to columns 11, 12, 23, 24, rows I-P for the minimum signal control. A cocktail (40 μL) containing the wild-type PRC2 enzyme and H3K27me0 peptide or any of the Y641 mutant enzymes and H3K27me2 peptide was added by Multidrop Combi (Thermo). The compounds were allowed to incubate with PRC2 for 30 min at 25° C., then a cocktail (10 μL) containing a mixture of non-radioactive and ^3H-SAM was added to initiate the reaction (final volume=51 μL). […] The assays were stopped by the addition of non-radioactive SAM (10 μL) to a final concentration of 600 μM, which dilutes the ^3H-SAM to a level where its incorporation into the peptide substrate is no longer detectable. 50 μL of the reaction in the 384-well polypropylene plate was then transferred to a 384-well Flashplate and the biotinylated peptides were allowed to bind to the streptavidin surface for at least 1 h before being washed three times with 0.1% Tween20 in a Biotek ELx405 plate washer. The plates were then read in a PerkinElmer TopCount platereader to measure the quantity of ^3H-labeled peptide bound to the Flashplate surface, measured as disintegrations per minute (dpm) or alternatively, referred to as counts per minute (cpm).
Where dpm=disintegrations per minute, cmpd=signal in assay well, and min and max are the respective minimum and maximum signal controls.
Where top and bottom are the normally allowed to float, but may be fixed at 100 or 0 respectively in a 3-parameter fit. The Hill Coefficient normally allowed to float but may also be fixed at 1 in a 3-parameter fit. Y is the % inhibition and X is the compound concentration.

Chain of EZH2 (Q15910 other isoform, or with tags, fused parts or gaps): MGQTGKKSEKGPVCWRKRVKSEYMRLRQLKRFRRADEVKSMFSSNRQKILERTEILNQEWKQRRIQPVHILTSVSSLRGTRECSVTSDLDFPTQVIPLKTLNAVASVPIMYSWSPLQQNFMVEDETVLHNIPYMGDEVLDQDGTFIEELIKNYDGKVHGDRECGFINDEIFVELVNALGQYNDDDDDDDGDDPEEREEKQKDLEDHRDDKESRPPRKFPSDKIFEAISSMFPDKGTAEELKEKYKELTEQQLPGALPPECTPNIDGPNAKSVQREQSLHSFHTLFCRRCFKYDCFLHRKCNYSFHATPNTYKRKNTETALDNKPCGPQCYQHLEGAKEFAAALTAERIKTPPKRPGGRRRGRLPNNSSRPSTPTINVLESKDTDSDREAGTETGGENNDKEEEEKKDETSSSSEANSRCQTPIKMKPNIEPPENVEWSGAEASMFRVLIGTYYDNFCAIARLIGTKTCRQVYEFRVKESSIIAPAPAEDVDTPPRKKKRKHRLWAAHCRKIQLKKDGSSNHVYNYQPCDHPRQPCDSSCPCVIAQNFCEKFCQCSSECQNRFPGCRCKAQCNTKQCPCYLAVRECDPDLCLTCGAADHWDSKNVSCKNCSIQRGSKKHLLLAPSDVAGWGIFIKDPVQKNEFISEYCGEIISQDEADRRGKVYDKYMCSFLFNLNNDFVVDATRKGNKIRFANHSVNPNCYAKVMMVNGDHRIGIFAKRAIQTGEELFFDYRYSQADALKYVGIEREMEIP
Chain of EZH2 (O75530 whole entry partner): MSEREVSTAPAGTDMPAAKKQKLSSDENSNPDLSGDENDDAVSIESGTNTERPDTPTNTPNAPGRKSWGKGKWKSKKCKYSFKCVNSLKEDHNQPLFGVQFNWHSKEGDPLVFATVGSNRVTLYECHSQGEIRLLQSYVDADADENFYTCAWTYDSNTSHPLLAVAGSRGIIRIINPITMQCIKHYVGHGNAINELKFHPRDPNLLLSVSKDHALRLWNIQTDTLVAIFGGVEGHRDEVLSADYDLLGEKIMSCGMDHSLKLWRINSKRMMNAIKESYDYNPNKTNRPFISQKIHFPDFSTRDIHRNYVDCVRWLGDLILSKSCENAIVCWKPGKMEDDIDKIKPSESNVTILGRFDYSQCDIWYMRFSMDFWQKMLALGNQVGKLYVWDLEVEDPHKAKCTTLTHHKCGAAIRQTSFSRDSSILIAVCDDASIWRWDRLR
Chain of EZH2 (Q15022 whole entry partner): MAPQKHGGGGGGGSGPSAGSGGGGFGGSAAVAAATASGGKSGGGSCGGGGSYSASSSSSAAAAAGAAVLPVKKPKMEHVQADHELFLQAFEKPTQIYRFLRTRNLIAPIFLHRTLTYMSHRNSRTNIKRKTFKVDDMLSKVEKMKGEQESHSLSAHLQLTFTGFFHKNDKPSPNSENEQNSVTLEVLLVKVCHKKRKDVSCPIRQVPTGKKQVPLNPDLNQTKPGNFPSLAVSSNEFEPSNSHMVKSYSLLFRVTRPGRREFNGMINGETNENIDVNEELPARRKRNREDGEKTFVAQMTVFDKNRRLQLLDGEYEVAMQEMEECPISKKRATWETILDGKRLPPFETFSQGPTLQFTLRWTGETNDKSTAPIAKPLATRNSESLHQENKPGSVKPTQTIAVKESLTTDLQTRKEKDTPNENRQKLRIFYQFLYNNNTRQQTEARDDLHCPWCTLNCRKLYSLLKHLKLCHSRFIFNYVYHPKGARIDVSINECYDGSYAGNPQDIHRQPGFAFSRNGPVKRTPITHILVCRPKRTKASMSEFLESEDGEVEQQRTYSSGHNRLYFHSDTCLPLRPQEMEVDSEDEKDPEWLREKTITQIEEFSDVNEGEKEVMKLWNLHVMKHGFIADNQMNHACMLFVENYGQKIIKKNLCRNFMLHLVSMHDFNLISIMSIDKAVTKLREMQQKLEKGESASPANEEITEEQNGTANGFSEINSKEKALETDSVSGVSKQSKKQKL
Chain of EZH2 (Q09028 whole entry partner): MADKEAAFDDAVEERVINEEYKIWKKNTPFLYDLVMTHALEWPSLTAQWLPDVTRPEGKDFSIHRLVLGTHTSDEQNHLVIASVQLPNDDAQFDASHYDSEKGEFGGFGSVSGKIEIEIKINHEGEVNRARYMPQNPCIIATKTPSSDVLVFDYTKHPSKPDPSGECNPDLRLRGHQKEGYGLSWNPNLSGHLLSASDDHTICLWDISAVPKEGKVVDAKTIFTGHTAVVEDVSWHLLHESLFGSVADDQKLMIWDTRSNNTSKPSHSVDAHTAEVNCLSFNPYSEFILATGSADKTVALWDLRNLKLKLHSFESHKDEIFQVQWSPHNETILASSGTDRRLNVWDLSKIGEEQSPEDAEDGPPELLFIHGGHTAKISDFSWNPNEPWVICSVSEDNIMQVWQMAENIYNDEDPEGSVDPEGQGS

First: Cc1cc(C)c(CNC(=O)c2cc(C3=CC(C)(C)NC(C)(C)C3)nc3c2cnn3C2COC2)c(=O)[nH]1 [Compound B-15, N-((4,6-dimethyl-2-oxo-1,2-dihydropyridin-3-yl)methyl)-1-(oxetan-3-yl)-6-(2,2,6,6-tetramethyl-1,2,3,6-tetrahydropyridin-4-yl)-1H-pyrazolo[3,4-b]pyridine-4-carboxamide]
Second: Cc1cc(C)c(CNC(=O)c2cc(C3=CC(C)(C)NC(C)(C)C3)nc3c2cnn3C2CCCCC2)c(=O)[nH]1 [Compound B-16, 1-cyclohexyl-N-((4,6-dimethyl-2-oxo-1,2-dihydropyridin-3-yl)methyl)-6-(2,2,6,6-tetramethyl-1,2,3,6-tetrahydropyridin-4-yl)-1H-pyrazolo[3,4-b]pyridine-4-carboxamide]
The IC50 of the first is higher: 300 to 1000 nM for the first, less than 300 nM for the second.

`CC(=O)c1cc(C(=O)NCc2c(C)cc(C)[nH]c2=O)c2cnn(C(C)C)c2n1` [Compound B-17, 6-acetyl-N-((4,6-dimethyl-2-oxo-1,2-dihydropyridin-3-yl)methyl)-1-isopropyl-1H-pyrazolo[3,4-b]pyridine-4-carboxamide] and `CNC(=O)c1cc(C(=O)NCc2c(C)cc(C)[nH]c2=O)c2cnn(C(C)C)c2n1` [Compound B-18, N4-((4,6-dimethyl-2-oxo-1,2-dihydropyridin-3-yl)methyl)-1-isopropyl-N6-methyl-1H-pyrazolo[3,4-b]pyridine-4,6-dicarboxamide] fall in the same range of IC50: 1000 to 3000 nM for the first, 1000 to 3000 nM for the second.

`Cc1cc(C)c(CNC(=O)c2cc(C3=CCN(C(=O)C4CCNCC4)CC3)nc3c2cnn3C(C)C)c(=O)[nH]1` [Compound B-20, N-((4,6-dimethyl-2-oxo-1,2-dihydropyridin-3-yl)methyl)-1-isopropyl-6-(1-(piperidine-4-carbonyl)-1,2,3,6-tetrahydropyridin-4-yl)-1H-pyrazolo[3,4-b]pyridine-4-carboxamide] and `Cc1cc(C)c(CNC(=O)c2cc(C3=CCN(C(=O)C4CCCNC4)CC3)nc3c2cnn3C(C)C)c(=O)[nH]1` (stereo not shown) [Compound B-28, N-((4,6-dimethyl-2-oxo-1,2-dihydropyridin-3-yl)methyl)-1-isopropyl-6-(1-(piperidine-3-carbonyl)-1,2,3,6-tetrahydropyridin-4-yl)-1H-pyrazolo[3,4-b]pyridine-4-carboxamide] cannot be ordered by IC50: less than 300 nM for the first, less than 300 nM for the second.

First: COCc1cc(C)[nH]c(=O)c1CNC(=O)c1cc(C2=CC(C)(C)NC(C)(C)C2)nc2c1cnn2C(C)C [Compound B-21, 1-isopropyl-N-((4-(methoxymethyl)-6-methyl-2-oxo-1,2-dihydropyridin-3-yl)methyl)-6-(2,2,6,6-tetramethyl-1,2,3,6-tetrahydropyridin-4-yl)-1H-pyrazolo[3,4-b]pyridine-4-carboxamide]
Second: CCc1cc(C)[nH]c(=O)c1CNC(=O)c1cc(C2=CC(C)(C)NC(C)(C)C2)nc2c1cnn2C(C)C [Compound B-25, N-((4-ethyl-6-methyl-2-oxo-1,2-dihydropyridin-3-yl)methyl)-1-isopropyl-6-(2,2,6,6-tetramethyl-1,2,3,6-tetrahydropyridin-4-yl)-1H-pyrazolo[3,4-b]pyridine-4-carboxamide]
The IC50 of the first is higher: 300 to 1000 nM for the first, less than 300 nM for the second. The second is the more potent here.

First: Cc1cc(C)c(CNC(=O)c2cc(C=O)nc3c2cnn3C(C)C)c(=O)[nH]1 [Compound B-22, N-((4,6-dimethyl-2-oxo-1,2-dihydropyridin-3-yl)methyl)-6-formyl-1-isopropyl-1H-pyrazolo[3,4-b]pyridine-4-carboxamide]
Second: Cc1cc(C)c(CNC(=O)c2cc(C3CCNCC3)nc3c2cnn3C(C)C)c(=O)[nH]1 [Compound B-24, N-((4,6-dimethyl-2-oxo-1,2-dihydropyridin-3-yl)methyl)-1-isopropyl-6-(piperidin-4-yl)-1H-pyrazolo[3,4-b]pyridine-4-carboxamide]
The IC50 of the first is lower: less than 300 nM for the first, 300 to 1000 nM for the second.

First: CCc1nn(C(C)C)c2nc(C3=CC(C)(C)NC(C)(C)C3)cc(C(=O)NCc3c(C)cc(C)[nH]c3=O)c12 [Compound B-26, N-((4,6-dimethyl-2-oxo-1,2-dihydropyridin-3-yl)methyl)-3-ethyl-1-isopropyl-6-(2,2,6,6-tetramethyl-1,2,3,6-tetrahydropyridin-4-yl)-1H-pyrazolo[3,4-b]pyridine-4-carboxamide]
Second: Cc1cc(C)c(CNC(=O)c2cc(C3=CCN(C(=O)C4CNC4)CC3)nc3c2cnn3C(C)C)c(=O)[nH]1 [Compound B-30, 6-(1-(azetidine-3-carbonyl)-1,2,3,6-tetrahydropyridin-4-yl)-N-((4,6-dimethyl-2-oxo-1,2-dihydropyridin-3-yl)methyl)-1-isopropyl-1H-pyrazolo[3,4-b]pyridine-4-carboxamide]
The IC50 of the first is higher: 300 to 1000 nM for the first, less than 300 nM for the second.

First: Cc1cc(C)c(CNC(=O)c2cc(C3CCN(S(C)(=O)=O)CC3)nc3c2cnn3C(C)C)c(=O)[nH]1 [Compound B-27, N-((4,6-dimethyl-2-oxo-1,2-dihydropyridin-3-yl)methyl)-1-isopropyl-6-(1-(methylsulfonyl)piperidin-4-yl)-1H-pyrazolo[3,4-b]pyridine-4-carboxamide]
Second: Cc1cc(C)c(CNC(=O)c2cc(C3CCN(C4CCN(S(C)(=O)=O)CC4)CC3)nc3c2cnn3C(C)C)c(=O)[nH]1 [Compound B-35, N-((4,6-dimethyl-2-oxo-1,2-dihydropyridin-3-yl)methyl)-1-isopropyl-6-(1′-(methylsulfonyl)-[1,4′-bipiperidin]-4-yl)-1H-pyrazolo[3,4-b]pyridine-4-carboxamide]
The IC50 of the first is higher: 300 to 1000 nM for the first, less than 300 nM for the second. The second is the more potent here.

`Cc1cc(C)c(CNC(=O)c2cc(C3CCN(C4CCNCC4)CC3)nc3c2cnn3C(C)C)c(=O)[nH]1` [Compound B-29, 6-([1,4′-bipiperidin]-4-yl)-N-((4,6-dimethyl-2-oxo-1,2-dihydropyridin-3-yl)methyl)-1-isopropyl-1H-pyrazolo[3,4-b]pyridine-4-carboxamide] and `Cc1cc(C)c(CNC(=O)c2cc(C3=CCN(C4CCN(CCS(C)(=O)=O)CC4)CC3)nc3c2cnn3C(C)C)c(=O)[nH]1` [Compound B-33, N-((4,6-dimethyl-2-oxo-1,2-dihydropyridin-3-yl)methyl)-1-isopropyl-6-(1-(1-(2-(methylsulfonyl)ethyl)piperidin-4-yl)-1,2,3,6-tetrahydropyridin-4-yl)-1H-pyrazolo[3,4-b]pyridine-4-carboxamide] cannot be ordered by IC50: less than 300 nM for the first, less than 300 nM for the second.

`Cc1cc(C)c(CNC(=O)c2cc(C3=CCN(C(=O)C4CCN(C)C4)CC3)nc3c2cnn3C(C)C)c(=O)[nH]1` (stereo not shown) [Compound B-31, N-((4,6-dimethyl-2-oxo-1,2-dihydropyridin-3-yl)methyl)-1-isopropyl-6-(1-(1-methylpyrrolidine-3-carbonyl)-1,2,3,6-tetrahydropyridin-4-yl)-1H-pyrazolo[3,4-b]pyridine-4-carboxamide] and `Cc1cc(C)c(CNC(=O)c2cc(C3=CCN(C(=O)C4CCCN(C)C4)CC3)nc3c2cnn3C(C)C)c(=O)[nH]1` (stereo not shown) [Compound B-32, N-((4,6-dimethyl-2-oxo-1,2-dihydropyridin-3-yl)methyl)-1-isopropyl-6-(1-(1-methylpiperidine-3-carbonyl)-1,2,3,6-tetrahydropyridin-4-yl)-1H-pyrazolo[3,4-b]pyridine-4-carboxamide] cannot be ordered by IC50: less than 300 nM for the first, less than 300 nM for the second.

`Cc1cc(C)c(CNC(=O)c2cc(C3=CCN(C(=O)C4CCN(C)CC4)CC3)nc3c2cnn3C(C)C)c(=O)[nH]1` [Compound B-34, N-((4,6-dimethyl-2-oxo-1,2-dihydropyridin-3-yl)methyl)-1-isopropyl-6-(1-(1-methylpiperidine-4-carbonyl)-1,2,3,6-tetrahydropyridin-4-yl)-1H-pyrazolo[3,4-b]pyridine-4-carboxamide] was tested, and the IC50 was less than 300 nM.
